Measurements as given in US7696129B2, “Substituted aromatic amide derivative, intermediate thereof, agrohorticultural insecticide containing thereof and method for the use thereof” (Nihon Nohyaku Co., Ltd., priority 2001, dated 2010).

Columns and labels:
Format in all cases: in vivo
[1] = tested on: Smaller Tea Tortrix (Adxophyes sp.); experiment: Test Example 3: insecticidal effect on smaller tea tortrix, tea leaf immersion; conditions: 50 ppm, tea leaves immersed about 30 seconds, larvae, 25° C., humidity 70%, eight days after the inoculation
Outline: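 Tea leaves dipped about 30 s in compound diluted to 50 ppm, air-dried, then infested with smaller tea tortrix larvae at 25°C and 70% humidity. Mortality counted 8 days post-inoculation and scored by a graded criterion; triplicate groups of 10 insects.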

[2] = tested on: Diamond Back Moth (Plutella xylostella); experiment: Test Example 4: controlling effect on diamond back moth with soil treatment (pricking-in hole treatment with granules); conditions: 10 mgAI/plant, soil treatment at fix planting, about 50 eggs inoculated nine days after planting
Text: Controlling Effect on Diamond Back Moth (Plutella xylostella) with Soil Treatment of […] The pricking-in hole treatment was done with the granules containing each compound listed in Tables 4 according to the formulation examples of the present invention, at the fix planting of […] (cultivar; YR Seitoku). Nine days after the fix planting, about 50 eggs of diamond back moth (Plutella xylostella) were innoculated, then the number of the parasitic insects of diamond back moth (Plutella xylostella) was counted on the specified days after the innoculation.

[3] = tested on: Common Cutworm (Spodoptera litura); experiment: Test Example 2: insecticidal effect on common cutworm, cabbage leaf immersion; conditions: cabbage leaf immersed about 30 seconds, second-instar larvae, 25° C., eight days after the inoculation; for Test Example 2 (insecticidal effect, mortality criterion): 50 ppm; for mortality at 50 ppm: Spodoptera litura, 192 h, read-out: Test Example 2 (insecticidal effect, mortality criterion)
Outline: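 Cabbage leaf pieces dipped about 30 seconds in 50 ppm compound dilution, air-dried, then infested with second-instar larvae and kept at 25° C. Dead and alive counted eight days after inoculation to give mortality; triplicate groups of 10 insects.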

[4] = tested on: Diamond Back Moth (Plutella xylostella); experiment: Test Example 1: insecticidal effect on diamond back moth, immersion of Chinese cabbage seedling with eggs; conditions: seedling with eggs immersed about 30 seconds, 25° C., six days after the immersion; for Test Example 1 (insecticidal effect, mortality criterion): 50 ppm; for mortality at 50 ppm: Plutella xylostella, 144 h, read-out: Test Example 1 (insecticidal effect, mortality criterion)
Outline: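 Chinese cabbage seedlings bearing 2-day-old moth eggs dipped about 30 s in compound at 50 ppm, air-dried, held at 25° C. Hatched larvae counted six days later to give mortality; triplicate groups of 10 insects.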

With `CSCC(C)(C)NC(=O)c1c(I)cccc1C(=O)Nc1ccc(C(C(F)(F)F)C(F)(F)F)cc1C` [5-30] the “Test Example 3 (insecticidal effect, mortality criterion)” value [1] was “A (Mortality 100%)”, the “Number of the parasitic insects/three plants After 18 days” value [2] was 0 parasitic insects/three plants and the “Number of the parasitic insects/three plants After 25 days” value [2] was 3 parasitic insects/three plants. The “Number of the parasitic insects/three plants After 32 days” value [2] was 22 parasitic insects/three plants, the “Test Example 2 (insecticidal effect, mortality criterion)” value [3] was “A (Mortality 100%)” and the “Test Example 1 (insecticidal effect, mortality criterion)” value [4] was “A (Mortality 100%)”.

With `Cc1nc(C(C(F)(F)F)C(F)(F)F)ccc1NC(=O)c1cccc(I)c1C(=O)NC(C)COC(=O)NCc1ccccc1` (stereo not drawn) [8-27] the “Test Example 3 (insecticidal effect, mortality criterion)” value [1] was “E (Mortality 49% or less)”, the “Test Example 2 (insecticidal effect, mortality criterion)” value [3] was “E (Mortality 49% or less)” and the “Test Example 1 (insecticidal effect, mortality criterion)” value [4] was “A (Mortality 100%)”.

With `CSCC1(C)COC(c2c(I)cccc2C(=O)Nc2ccc(C(C(F)(F)F)C(F)(F)F)cc2C)=N1` (stereo not drawn) [10-2] the “Test Example 3 (insecticidal effect, mortality criterion)” value [1] was “E (Mortality 49% or less)”, the “Test Example 2 (insecticidal effect, mortality criterion)” value [3] was “E (Mortality 49% or less)” and the “Test Example 1 (insecticidal effect, mortality criterion)” value [4] was “A (Mortality 100%)”.

In the case of `Cc1cc(C(C(F)(F)F)C(F)(F)F)ccc1NC(=O)c1cccc(I)c1C1=NC(C)(C[S+](C)[O-])CO1` (stereo not drawn) [10-3], the “Test Example 3 (insecticidal effect, mortality criterion)” value [1] is reported as “E (Mortality 49% or less)”, the “Test Example 2 (insecticidal effect, mortality criterion)” value [3] is reported as “E (Mortality 49% or less)” and the “Test Example 1 (insecticidal effect, mortality criterion)” value [4] is reported as “A (Mortality 100%)”.

For `Cc1cc(C(C(F)(F)F)C(F)(F)F)ccc1NC(=O)c1cccc(I)c1C1=NC(C)(CS(C)(=O)=O)CO1` (stereo not drawn) [10-4], the “Test Example 3 (insecticidal effect, mortality criterion)” value [1] was “E (Mortality 49% or less)”, the “Test Example 2 (insecticidal effect, mortality criterion)” value [3] was “E (Mortality 49% or less)” and the “Test Example 1 (insecticidal effect, mortality criterion)” value [4] was “A (Mortality 100%)”.

`CCc1cc(CC(F)(F)F)ccc1NC(=O)c1cccc(I)c1C(=O)NC(C)(C)CSC` [Compound No. 5-2] was tested, and the “Test Example 3 (insecticidal effect, mortality criterion)” value [1] was “A (Mortality 100%)”, the “Test Example 2 (insecticidal effect, mortality criterion)” value [3] was “A (Mortality 100%)” and the “Test Example 1 (insecticidal effect, mortality criterion)” value [4] was “A (Mortality 100%)”.

In the case of `CSCC(C)(C)NC(=O)c1c(I)cccc1C(=O)Nc1ccc(C(C(F)(F)F)C(F)(F)F)cc1C` [Compound No. 5-28, N^2-(1,1-dimethyl-2-methylthioethyl)-3-iodo-N^1-{2-methyl-4-[2,2,2-trifluoro-1-(trifluoromethyl)ethyl]phenyl}phthalamide], the “Test Example 3 (insecticidal effect, mortality criterion)” value [1] is reported as “A (Mortality 100%)”, the “Number of the parasitic insects/three plants After 18 days” value [2] is reported as 0 parasitic insects/three plants and the “Number of the parasitic insects/three plants After 25 days” value [2] is reported as 5 parasitic insects/three plants. For the same compound, the “Number of the parasitic insects/three plants After 32 days” value [2] was 14 parasitic insects/three plants, the mortality at 50 ppm [3] was 100% and the mortality at 50 ppm [4] was 100%.

For `Cc1cc(C(C(F)(F)F)C(F)(F)F)ccc1NC(=O)c1cccc(I)c1C(=O)NC(C)(C)C[S+](C)[O-]` (stereo not drawn) [Compound No. 5-29, N^2-(1,1-dimethyl-2-methylsulfinylethyl)-3-iodo-N^1-[2-methyl-4-{2,2,2-trifluoro-1-(trifluoromethyl)ethyl}phenyl]phthalamide], the “Test Example 3 (insecticidal effect, mortality criterion)” value [1] was “A (Mortality 100%)”, the “Number of the parasitic insects/three plants After 18 days” value [2] was 0 parasitic insects/three plants and the “Number of the parasitic insects/three plants After 25 days” value [2] was 0 parasitic insects/three plants. For the same compound, the “Number of the parasitic insects/three plants After 32 days” value [2] was 0 parasitic insects/three plants, the mortality at 50 ppm [3] was 100% and the mortality at 50 ppm [4] was 100%.

`CSCC(C)(C)NC(=O)c1c(I)cccc1C(=O)Nc1ccc(C(C(F)(F)F)C(F)(F)F)nc1Cl` [Compound No. 8-4, N^2-(1,1-dimethyl-2-methylthioethyl)-3-iodo-N^1-{2-chloro-6-[2,2,2-trifluoro-1-(trifluoromethyl)ethyl]pyridin-3-yl}phthalamide] was tested, and the “Test Example 3 (insecticidal effect, mortality criterion)” value [1] was “A (Mortality 100%)”, the mortality at 50 ppm [3] was 100% and the mortality at 50 ppm [4] was 100%.

`Cc1cc(C(C(F)(F)F)C(F)(F)F)ccc1NC(=O)c1cccc(I)c1C1=NC(C)(C)CO1` [Compound No. 10-1, 3-iodo-2-(4,4-dimethyloxazolin-2-yl)-2′-methyl-4′-[2,2,2-trifluoro-1-(trifluoromethyl)ethyl]benzanilide] was tested, and the “Test Example 3 (insecticidal effect, mortality criterion)” value [1] was “E (Mortality 49% or less)”, the mortality at 50 ppm [3] was no more than 49% and the mortality at 50 ppm [4] was 100%.
